According to ChEMBL document CHEMBL4814028, “Design, synthesis, and antibacterial evaluation of PFK-158 derivatives as potent agents against drug-resistant bacteria” (Bioorg Med Chem Lett, 2021):
≈ marks a conversion by molar mass, not a printed value.

What was measured:
[1] = test system: Staphylococcus aureus; test: Antibacterial activity against methicillin-sensitive Staphylococcus aureus ATCC 29213 by agar method; format: functional
[2] = test system: Escherichia coli; test: Antibacterial activity against NDM-1 positive Escherichia coli ATCC 2469 by agar method; format: functional
[3] = test system: Staphylococcus epidermidis; test: Antibacterial activity against methicillin-sensitive Staphylococcus epidermidis ATCC 12228 by agar method; format: functional
[4] = test system: Enterococcus faecalis; test: Antibacterial activity against Vancomycin-sensitive Enterococcus faecalis ATCC 29212 by agar method; format: functional
[5] = test system: Acinetobacter baumannii; test: Antibacterial activity against carbapenem-resistant Acinetobacter baumannii 16-33 by agar method; format: functional
[6] = test system: Staphylococcus epidermidis; test: Antibacterial activity against methicillin-resistant Staphylococcus epidermidis 16-5 by agar method; format: functional
[7] = test system: Staphylococcus aureus; test: Antibacterial activity against methicillin-resistant Staphylococcus aureus ATCC 33591 by agar method; format: functional
[8] = test system: Escherichia coli; test: Antibacterial activity against ESBLs positive Escherichia coli ATCC 35218 by agar method; format: functional
[9] = test system: Escherichia coli; test: Antibacterial activity against ESBLs negative Escherichia coli ATCC 25922 by agar method; format: functional
[10] = test system: Enterococcus faecalis; test: Antibacterial activity against vancomycin-resistant Enterococcus faecalis ATCC 51299 by agar method; format: functional
[11] = test system: A549; test: Cytotoxicity against human A549 cells; format: cell-based

| Structure (SMILES) | MIC [1] | MIC [2] | MIC [3] | MIC [4] | MIC [5] | MIC [6] | MIC [7] | MIC [8] | MIC [9] | MIC [10] | IC50 [11] |
| --- | --- | --- | --- | --- | --- | --- | --- | --- | --- | --- | --- |
| O=C(/C=C/c1ccc2ncccc2c1)c1cccnc1 | 16 µg/mL (≈ 61.5 µM) | > 128 µg/mL | 8 µg/mL (≈ 30.7 µM) | 32 µg/mL (≈ 123 µM) | 128 µg/mL (≈ 492 µM) | 8 µg/mL (≈ 30.7 µM) | 16 µg/mL (≈ 61.5 µM) | > 128 µg/mL | > 128 µg/mL | 32 µg/mL (≈ 123 µM) |  |
| COCOc1ccc(C(=O)/C=C/c2ccc3ccccc3n2)cc1OCOC | 8 µg/mL (≈ 21.1 µM) | > 128 µg/mL | 4 µg/mL (≈ 10.5 µM) | > 128 µg/mL | > 128 µg/mL | 8 µg/mL (≈ 21.1 µM) | 8 µg/mL (≈ 21.1 µM) | > 128 µg/mL | > 128 µg/mL | > 128 µg/mL |  |
| O=C(/C=C/c1ccc2c(C(F)(F)F)cccc2n1)c1ccncc1 | 1 µg/mL (≈ 3.05 µM) | > 128 µg/mL | 2 µg/mL (≈ 6.09 µM) | > 128 µg/mL | 128 µg/mL (≈ 390 µM) | 4 µg/mL (≈ 12.2 µM) | 1 µg/mL (≈ 3.05 µM) | > 128 µg/mL | > 128 µg/mL | > 128 µg/mL | 45.4 µM |
| O=C(/C=C/c1ccccn1)c1ccc2ccc(C(F)(F)F)cc2n1 | 4 µg/mL (≈ 12.2 µM) | > 32 µg/mL | 2 µg/mL (≈ 6.09 µM) | 32 µg/mL (≈ 97.5 µM) | > 32 µg/mL | 4 µg/mL (≈ 12.2 µM) | 2 µg/mL (≈ 6.09 µM) | > 32 µg/mL | > 32 µg/mL | > 32 µg/mL | 11.2 µM |
| O=C(/C=C/c1ccc2c(C(F)(F)F)cccc2n1)c1ccccn1 | 1 µg/mL (≈ 3.05 µM) | > 128 µg/mL | 2 µg/mL (≈ 6.09 µM) | > 128 µg/mL | 128 µg/mL (≈ 390 µM) | 2 µg/mL (≈ 6.09 µM) | 1 µg/mL (≈ 3.05 µM) | > 128 µg/mL | > 128 µg/mL | > 128 µg/mL | 43.1 µM |
| O=C(/C=C/c1ccc2ccc(C(F)(F)F)cc2n1)c1ccccc1 | > 128 µg/mL | > 128 µg/mL | > 128 µg/mL | > 128 µg/mL | > 128 µg/mL | > 128 µg/mL | > 128 µg/mL | > 128 µg/mL | > 128 µg/mL | > 128 µg/mL |  |
| O=C(/C=C/c1ccc2ccc(C(F)(F)F)cc2n1)c1ccc2c(c1)OCO2 | > 128 µg/mL | > 128 µg/mL | > 128 µg/mL | > 128 µg/mL | > 128 µg/mL | > 128 µg/mL | > 128 µg/mL | > 128 µg/mL | > 128 µg/mL | > 128 µg/mL |  |
| O=C(/C=C/c1cccnc1)c1ccc2ccccc2c1 | 8 µg/mL (≈ 30.9 µM) | > 128 µg/mL | 4 µg/mL (≈ 15.4 µM) | > 128 µg/mL | > 128 µg/mL | 16 µg/mL (≈ 61.7 µM) | 8 µg/mL (≈ 30.9 µM) | > 128 µg/mL | > 128 µg/mL | > 128 µg/mL |  |
| O=C(/C=C/c1ccc2ccccc2c1)c1ccncc1 | > 128 µg/mL | > 128 µg/mL | > 128 µg/mL | > 128 µg/mL | > 128 µg/mL | > 128 µg/mL | > 128 µg/mL | > 128 µg/mL | > 128 µg/mL | > 128 µg/mL |  |
| O=C(/C=C/c1ccc2ccccc2n1)c1ccc2c(c1)OCO2 | > 128 µg/mL | > 128 µg/mL | > 128 µg/mL | > 128 µg/mL | > 128 µg/mL | > 128 µg/mL | > 128 µg/mL | > 128 µg/mL | > 128 µg/mL | > 128 µg/mL |  |
| O=C(/C=C/c1ccc2ccccc2c1)c1cccnc1 | > 128 µg/mL | > 128 µg/mL | > 128 µg/mL | > 128 µg/mL | > 128 µg/mL | > 128 µg/mL | > 128 µg/mL | > 128 µg/mL | > 128 µg/mL | > 128 µg/mL |  |
| C[n+]1cccc(C(=O)/C=C/c2ccc3ccccc3c2)c1.[I-] | > 128 µg/mL | > 128 µg/mL | > 128 µg/mL | > 128 µg/mL | > 128 µg/mL | > 128 µg/mL | > 128 µg/mL | > 128 µg/mL | > 128 µg/mL | > 128 µg/mL |  |
| C[n+]1ccc(C(=O)/C=C/c2ccc3ccccc3c2)cc1.[I-] | 128 µg/mL | > 128 µg/mL | 128 µg/mL | > 128 µg/mL | > 128 µg/mL | 128 µg/mL | 64 µg/mL | > 128 µg/mL | > 128 µg/mL | > 128 µg/mL |  |
| C[n+]1cccc(C(=O)/C=C/c2ccc3ccc(C(F)(F)F)cc3n2)c1.[I-] | 64 µg/mL | > 128 µg/mL | 64 µg/mL | 128 µg/mL | > 128 µg/mL | 64 µg/mL | 32 µg/mL | > 128 µg/mL | > 128 µg/mL | 128 µg/mL |  |
| O=C(/C=C/c1ccc2ccccc2n1)c1ccncc1 | 32 µg/mL (≈ 123 µM) | > 32 µg/mL | 32 µg/mL (≈ 123 µM) | 32 µg/mL (≈ 123 µM) | > 32 µg/mL | 32 µg/mL (≈ 123 µM) | 32 µg/mL (≈ 123 µM) | > 32 µg/mL | > 32 µg/mL | 32 µg/mL (≈ 123 µM) |  |
